Experiments:
Salmon testes DNA = assay: Displacement of methyl green from salmon sperm DNA assessed as DNA intercalation at 10 uM incubated for 24 hrs by fluorescence plate reader method relative to control; format: nucleic-acid assay; conditions: Salmo salar
[1] = Cytotoxicity against mouse NIH3T3 cells assessed as cell growth inhibition incubated for 72 hrs by MTT assay; format: toxicity, cell-based
K562 = assay: Cytotoxicity against human K562 cells assessed as cell growth inhibition incubated for 72 hrs by MTT assay; format: functional, cell-based; conditions: K562, 72 h
KB 3-1 = assay: Cytotoxicity against human KB 3-1 cells assessed as cell growth inhibition incubated for 72 hrs by MTT assay; format: functional, cell-based; conditions: KB 3-1, 72 h
[2] = (§1) Cytotoxicity against human HaCaT cells assessed as cell growth inhibition incubated for 72 hrs by MTT assay; format: toxicity, cell-based; conditions: HaCaT cells
MCF7 = assay: Cytotoxicity against human MCF7 cells assessed as cell growth inhibition incubated for 72 hrs by MTT assay; format: functional, cell-based; conditions: MCF7, 72 h
[3] = Cytotoxicity against human HCT116-p53-null cells assessed as cell growth inhibition incubated for 72 hrs by MTT assay; format: functional, cell-based
HCT-116 = assay: Cytotoxicity against human HCT-116 cells assessed as cell growth inhibition incubated for 72 hrs by MTT assay; format: functional, cell-based; conditions: HCT-116, 72 h
[4] = Cytotoxicity against mouse J774.2 cells assessed as cell growth inhibition incubated for 72 hrs by MTT assay; format: toxicity, cell-based
HaCaT = assay: as §1; format: toxicity, cell-based; conditions: hacat, 72 h
[5] = Acute toxicity in C57BL/6 mouse assessed as animal death at 20 mg/kg,ip administration observed after 13 days; format: organism-based; conditions: in vivo, 312 h, time 13 day
[6] = Acute toxicity in C57BL/6 mouse assessed as neutrophil count at 20 mg/kg,ip administration and observed after 22 days; format: organism-based; conditions: in vivo, 528 h, time 22 day
[7] = Acute toxicity in C57BL/6 mouse assessed as decrease in body mass at 20 mg/kg,ip administration observed after 6 days; format: organism-based; conditions: in vivo, 144 h, time 6 day
[8] = Antileukemic activity against human CLL cell assessed as cell growth inhibition incubated for 72 hrs by MTT assay; format: functional, cell-based
[9] = Antileukemic activity against human CLL cell assessed as cell growth inhibition incubated for 72 hrs during remission period by MTT assay; format: functional, cell-based
[10] = Acute toxicity in C57BL/6 mouse assessed as anemia at 20 mg/kg,ip administration observed after 22 days; format: organism-based; conditions: in vivo, 528 h, time 22 day
SK-MEL-2 = assay: Anticancer activity against human SK-MEL-2 cells assessed as cell growth at 10 uM incubated for 48 hrs by sulforhodamine B assay; format: functional; conditions: read-out: Activity
SNB-75 = assay: Anticancer activity against human SNB-75 cells assessed as cell growth at 10 uM incubated for 48 hrs by sulforhodamine B assay; format: functional; conditions: read-out: Activity
COLO 205 = assay: Anticancer activity against human COLO 205 cells assessed as cell growth at 10 uM incubated for 48 hrs by sulforhodamine B assay; format: functional; conditions: read-out: Activity
[11] = Acute toxicity in C57BL/6 mouse assessed as animal death at 20 mg/kg,ip administration observed after 8 days; format: organism-based; conditions: in vivo, 192 h, time 8 day
M14 = assay: Anticancer activity against human M14 cells assessed as cell growth at 10 uM incubated for 48 hrs by sulforhodamine B assay; format: functional; conditions: read-out: Activity
[12] = Acute toxicity in C57BL/6 mouse assessed as leukopenia at 20 mg/kg,ip administration observed after 22 days; format: organism-based; conditions: in vivo, 528 h, time 22 day
SK-MEL-5 = assay: Anticancer activity against human SK-MEL-5 cells assessed as cell growth at 10 uM incubated for 48 hrs by sulforhodamine B assay; format: functional; conditions: read-out: Activity
[13] = Acute toxicity in C57BL/6 mouse assessed as lymphocyte count at 20 mg/kg,ip administration and observed after 22 days; format: organism-based; conditions: in vivo, 528 h, time 22 day
A498 = assay: Anticancer activity against human A498 cells assessed as cell growth at 10 uM incubated for 48 hrs by sulforhodamine B assay; format: functional; conditions: read-out: Activity
MDA-MB-435 = assay: Anticancer activity against human MDA-MB-435 cells assessed as cell growth at 10 uM incubated for 48 hrs by sulforhodamine B assay; format: functional; conditions: read-out: Activity
[14] = Acute toxicity in C57BL/6 mouse assessed as decrease in body mass at 6.6 mg/kg,ip administration; format: organism-based; conditions: in vivo
[15] = Cytotoxicity against human Lymphocyte cells assessed as cell growth inhibition incubated for 72 hrs by MTT assay; format: toxicity, cell-based; conditions: lymphocytes
[16] = Antileukemic activity against human CLL cell assessed as cell growth inhibition incubated for 72 hrs in presence of BST by MTT assay; format: functional, cell-based
[17] = GSH reactivity of compound at pH 7.4 phosphate buffer assessed as GSH-adduct formation at 1 mM incubated for 1 hr by spectrophotometric analysis; format: physicochemical; conditions: pH 7.4, 1 h, 1000 µM
[18] = GSH reactivity of compound at pH 7.4 phosphate buffer assessed as GSH-adduct formation at 1 mM incubated for 1 hr in presence of sodium borohydride by spectrophotometric analysis; format: physicochemical; conditions: pH 7.4, 1 h, 1000 µM

| Compound | Activity (Salmon testes DNA) [%] | IC50 at 72 h [1] [µM] | IC50 (K562) [µM] | IC50 (KB 3-1) [µM] | IC50 at 72 h [2] [µM] | IC50 (MCF7) [µM] | IC50 [3] [µM] | IC50 (HCT-116) [µM] | IC50 at 72 h [4] [µM] | further results |
| --- | --- | --- | --- | --- | --- | --- | --- | --- | --- | --- |
| CC1(C)C2=C(Sc3[nH]c(=O)sc31)C(=O)c1cccc(O)c1C2=O | 42.5 | > 50 | 26.8 | 23.4 | > 50 | 9.48 | 36.2 | 12.9 | 26.4 |  |
| O=C1C2=C(C(=O)c3c(O)cccc31)C(/C=C/c1ccccc1)c1sc(=O)[nH]c1S2 (stereo not drawn) | 11.8 |  | 28.4 | 46.4 |  | 7.41 | 43.7 | 35.6 | 7.44 |  |
| O=C1C2=C(C(=O)c3c(O)cccc31)C(c1ccc(Br)cc1)c1sc(=O)[nH]c1S2 (stereo not drawn) | 29.5 | 30.4 | 6.31 | 2.74 | > 50 | 31.2 | 3.82 | 4.7 | 2.03 |  |
| O=C1C2=C(C(=O)c3ccccc31)C(c1ccco1)c1sc(=O)[nH]c1S2 (stereo not drawn) | 11.8 | 38.9 | 30.9 | 5.54 |  | 29 | 6.28 | 5.44 | 6.77 | Activity (HaCaT): Non-Toxic |
| COc1cccc2c1C(=O)c1c(O)c3c(c(O)c1C2=O)C[C@@](O)(C(=O)CO)C[C@@H]3O[C@H]1C[C@H](N)[C@H](O)[C@H](C)O1 [DOXORUBICIN] |  | 0.72 | 0.59 | 0.56 | 4.56 |  | 0.63 | 0.58 | 0.56 | Activity [5]: Toxic; Activity [6]: 45.05%; Activity [7]: Toxic; IC50 [8]: > 10 µM; IC50 [9]: 7.33 µM; Activity [10]: Toxic; growth at 10 µM (SK-MEL-2): -82.6%; growth at 10 µM (SNB-75): -76.1%; growth at 10 µM (COLO 205): -81.6%; Activity [11]: Toxic; growth at 10 µM (M14): -71.6%; Activity [12]: Toxic; growth at 10 µM (SK-MEL-5): -86.4%; Activity [13]: 50.35%; growth at 10 µM (A498): -75.1%; growth at 10 µM (MDA-MB-435): -82.6%; Activity [14]: Toxic; IC50 at 72 h [15]: 10 µM; IC50 [16]: 8.6 µM |
| O=C1NC(=S)/C(=C/c2ccco2)S1 |  |  |  |  |  |  |  |  |  | Activity [17]: Active; Activity [18]: Active |
| COc1ccc(C2C3=C(Sc4[nH]c(=O)sc42)C(=O)c2cccc(O)c2C3=O)cc1 (stereo not drawn) | 29.5 | 6.78 | 5.66 | 0.87 | 40.8 | 6.1 | 3.26 | 3.19 | 2.95 |  |
| C/C(=C\c1ccccc1)C1C2=C(Sc3[nH]c(=O)sc31)C(=O)c1cccc(O)c1C2=O (stereo not drawn) | 29.5 |  | 33 | 47.5 |  | > 50 | 41.7 | 40.6 | 30.8 |  |

Reference: ChEMBL document CHEMBL5360558, “Molecular design, synthesis and anticancer activity of new thiopyrano[2,3-d]thiazoles based on 5-hydroxy-1,4-naphthoquinone (juglone)” (Eur J Med Chem, 2023)
